Source: paper PMC8333425, “Discovery of a dual Ras and ARF6 inhibitor from a GPCR endocytosis screen” (Nature Communications, 2021)
Where “and” joins values, the source holds several entries; their conditions need not be identical. Equal values may be shown once.

Experiments:
Akt activation by EGFR = assay: Western blot of EGFR-mediated Akt activation; format: cell-based, human; details: for AKT activation, EGFR (p-Akt over Akt): individual experiments
Description: (§1) HEK293SL cells (10^5 cells per well) were seeded in a poly-L-lysine-coated six-well plate and transiently transfected with 3 μg Flag-AT1R, HA-B2R or HA-β2AR and/or 500 ng Flag-MEK1-WT, Flag-MEK1-DD, Flag-BRAF-WT, Flag-BRAF-V600E, Flag-K-Ras-WT, Flag-K-Ras-G12V, HA-ARF6-WT, or HA-ARF6-T27N. Gαq/11 KO and βarr1/2 KO cells were seeded onto 100 mm dishes at a density of 10^6 cells per dish. Next day, cells were transfected with 3 μg AT1R alone or along with 500 ng of β-arrestin2 using PEI. After 18 h of transfection, cells were detached and re-seeded onto poly-L-lysine coated 12-well plates (~1.5–2 × 10^5cells/well) for subsequent experiments. Forty-eight hours post transfection, in a 37 °C water bath, cells were serum-starved for 30 min, pretreated with DMSO (0.1%) or compound 21/Rasarfin (50 µM or at indicated concentrations) for 30 min, then stimulated or not with the indicated ligand [AngII (1 µM), BK (1 µM), Iso (10 µM) or EGF (100 ng/ml)] at indicated times. Cells were put on ice, washed with PBS and solubilized in 2x laemmli buffer (250 mM Tris–HCl pH 6.8, 2% SDS (w/v), 10% glycerol (v/v), 0.01% bromophenol blue (w/v) and 5% β-mercaptoethanol (v/v)) by heating at 65 °C for 15 min. Lysates were resolved on 10 or 14% SDS-PAGE, transferred to nitrocellulose membranes and immunoblotted for p-ERK1/2, ERK1/2, p-Akt, Akt, HA, Myc, β-actin or FLAG. ImageLab 5.2 software was used to quantify the digital blots as fold of the phosphorylated protein over total protein, which were then normalized as indicated in the figure legends. Uncropped immunoblots are provided in the Source Data file.

[1] = system: ERK1/2 activation by AT1R; assay: Western blot of AT1R-mediated ERK1/2 activation in β-arrestin1/2 KO cells; format: cell-based, human; details: for ERK1/2 activation by AT1R in β-arrestin1/2 KO cells: 50 μM
Description: as §1

RhoA = target: T1, RhoA (Homo sapiens, UniProt P61586); assay: GST-Rhotekin-RBD pull-down of AT1R-mediated RhoA activation; format: cell-based; details: for Rho-GTP/Rho: GST-Rhotekin-RBD, listed as Comp 21
T1 construct: endogenous in cells; host or cells: HEK293SL
Description: Activation of ARF1, ARF6, Ras, and Rho were assessed by using GST pull-down assays. HEK293SL cells were transiently transfected with 3 µg AT1R-flag only (Ras and Rho) or along with 500 ng HA-ARF6 (ARF6) or HA-ARF1 (ARF1). Forty-eight hours later, the HEK293 or MDA-MB-231 cells were serum-starved for 4 h with DMEM containing 20 mM HEPES then pretreated with DMSO or Rasarfin (50 µM) for 30 min. Cells were then stimulated with 1 µM AngII or 100 ng/ml EGF for 0 and 2 min. Cells were then washed once with ice-cold PBS and lysed for 30 min at 4 °C in 300 µl of lysis buffer (pH 7.5, 50 mM Tris-HCl, 140 mM NaCl, 5 mM MgCl2, 10% glycerol (v/v), 1% Nonidet P-40 (v/v), 1 mM dithiothreitol) supplemented with protease inhibitors (1 mM phenylmethyl-sulfonyl fluoride (PMSF), 10 µg/ml leupeptin, 5 µg/ml aprotinin, 1 µg/ml pepstatin A) and phosphatase inhibitors (20 mM NaF, 0.025 mM pervanadate). The samples were cleared by centrifugation and 30 µl (cell lysates) was kept for assessing total protein contents. The remaining was transferred to fresh tubes with 20 µg of either GST, GST-GGA3-PBD, GST-Raf1-RBD or GST-Rhotekin-RBD coupled to glutathione resin and rotated for 1–2 h at 4 °C. Beads were washed twice with lysis buffer and proteins were eluted in 25 μl 2x laemmli buffer by heating at 65 °C for 15 min. Proteins were resolved on 14% SDS-PAGE, transferred to nitrocellulose membranes, and immunoblotted for HA, Ras, RhoA, H-Ras, or ARF6. ImageLab 5.2 software was used to quantify the digital blots as fold of the amount of pulled down protein over total protein. Uncropped coomassie gels and immunoblots are provided in the Source Data file.

T1 sequence (P61586 whole entry): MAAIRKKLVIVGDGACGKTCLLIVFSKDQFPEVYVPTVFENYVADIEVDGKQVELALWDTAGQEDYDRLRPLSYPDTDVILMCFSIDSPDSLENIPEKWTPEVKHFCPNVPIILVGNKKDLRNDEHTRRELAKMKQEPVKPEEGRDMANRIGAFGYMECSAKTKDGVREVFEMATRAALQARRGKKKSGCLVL

## CC(C)C(=O)N1CCN(c2ccc(NC(=O)c3cc4ccccc4o3)cc2Cl)CC1 [Compound 21]
Akt activation by EGFR; Homo sapiens, read-out: potency for inhibition of EGFR-mediated Akt (western blot)
  IC50: 4 to 5 µM
Akt activation by EGFR; Log [Comp 21] (M) -4.3
  AKT activation, EGFR (p-Akt over Akt): 12.9009 percent compared to DMSO and 28.9803 percent compared to DMSO and 32.6041 percent compared to DMSO
Akt activation by EGFR; Log [Comp 21] (M) -5
  AKT activation, EGFR (p-Akt over Akt): 21.4684 percent compared to DMSO and 57.877 percent compared to DMSO and 33.8957 percent compared to DMSO
Akt activation by EGFR; Log [Comp 21] (M) -5.3
  AKT activation, EGFR (p-Akt over Akt): 42.6879 percent compared to DMSO and 80.2621 percent compared to DMSO and 48.2006 percent compared to DMSO
Akt activation by EGFR; Log [Comp 21] (M) -6
  AKT activation, EGFR (p-Akt over Akt): 93.9059 percent compared to DMSO and 99.6926 percent compared to DMSO and 89.9021 percent compared to DMSO
Akt activation by EGFR; Log [Comp 21] (M) -6.3
  AKT activation, EGFR (p-Akt over Akt): 94.5153 percent compared to DMSO and 100.709 percent compared to DMSO and 97.0491 percent compared to DMSO
Akt activation by EGFR; Log [Comp 21] (M) -7
  AKT activation, EGFR (p-Akt over Akt): 104.373 percent compared to DMSO and 93.1512 percent compared to DMSO and 83.461 percent compared to DMSO
[1]
  ERK1/2 activation by AT1R in β-arrestin1/2 KO cells: similarly inhibited ERK1/2 activation
[1]; listed as Rasarfin
  ERK1/2 activation by AT1R in β-arrestin1/2 KO cells: totally blocked
[1]; barr1/2 KO cells, Time 0 min
  ERK1/2 activation relative to time 0 (S_Fig.4a): 1
  Mean Diff. DMSO - Comp 21 (Bonferroni's multiple comparisons test): 0
[1]; barr1/2 KO cells, Time 5 min
  Mean Diff. DMSO - Comp 21 (Bonferroni's multiple comparisons test): 8.446
[1]; barr1/2 KO cells, Time 20 min
  Mean Diff. DMSO - Comp 21 (Bonferroni's multiple comparisons test): 10.85
RhoA; 50 μM
  pull-down of Rho-GTP by GST-Rhotekin-RBD from cells stimulated with AT1R: nor did it prevent the pull-down of Rho-GTP
RhoA; AngII
  Rho-GTP/Rho: 0.2491 and 0.2385 and 0.2151 and 0.2027
RhoA; Ctrl
  Rho-GTP/Rho: 0.1261 and 0.1465 and 0.07786 and 0.1043
